Earlier results in PMC11609630 (Cancer Discovery, 2024).

Tested on: patients with TNBC

sacituzumab govitecan: TROP2-targeting antibody–drug conjugate
gain in ORR compared with chemotherapy (cohort of relapsed patients with TNBC): 30%
patients experiencing adverse events of grade 3 or higher (such as neutropenia and leukopenia): more than 50%
